Test results taken from PubChem BioAssay AID2060623 (Molecular Pharmacology Branch, DTP, NCI, 2025).

System: 227483-062-R1-J1-PDC complex spheroids with HUVEC/MSC, viability
Experiment: Anticancer human tumor 227483-062-R1-J1-PDC patient-derived pancreatic carcinoma cell line growth inhibition [CLK]
Conditions: for IC50: curve of first compound; for viability, T/C: stronger effect = lower value
In short: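 Multi-cell-type spheroids combined patient-derived tumor cells with HUVEC endothelial cells and human mesenchymal stem cells. Paired agents were dosed in half-log steps down from about clinical Cmax, or from 10 microM where Cmax was unknown.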

[1] = second compound 0.0316 µM, first compound 0.0316 µM
[2] = second compound 0.0316 µM, first compound 0.1 µM
[3] = second compound 0.0316 µM, first compound 0.316 µM
[4] = second compound 0.0316 µM, first compound 1 µM
[5] = second compound 0.0316 µM, first compound 3.16 µM
[6] = second compound 0.0316 µM, first compound 10 µM
[7] = second compound 0.1 µM, first compound 0.0316 µM
[8] = second compound 0.1 µM, first compound 0.1 µM
[9] = second compound 0.1 µM, first compound 0.316 µM
[10] = second compound 0.1 µM, first compound 1 µM
[11] = second compound 0.1 µM, first compound 3.16 µM
[12] = second compound 0.1 µM, first compound 10 µM
[13] = second compound 0.316 µM, first compound 0.0316 µM
[14] = second compound 0.316 µM, first compound 0.1 µM
[15] = second compound 0.316 µM, first compound 0.316 µM
[16] = second compound 0.316 µM, first compound 1 µM
[17] = second compound 0.316 µM, first compound 3.16 µM
[18] = second compound 0.316 µM, first compound 10 µM
[19] = second compound 1 µM, first compound 0.0316 µM
[20] = second compound 1 µM, first compound 0.1 µM
[21] = second compound 1 µM, first compound 0.316 µM
[22] = second compound 1 µM, first compound 1 µM
[23] = second compound 1 µM, first compound 3.16 µM
[24] = second compound 1 µM, first compound 10 µM
[25] = second compound 3.16 µM, first compound 0.0316 µM
[26] = second compound 3.16 µM, first compound 0.1 µM
[27] = second compound 3.16 µM, first compound 0.316 µM
[28] = second compound 3.16 µM, first compound 1 µM
[29] = second compound 3.16 µM, first compound 3.16 µM
[30] = second compound 3.16 µM, first compound 10 µM
[31] = second compound 10 µM, first compound 0.0316 µM
[32] = second compound 10 µM, first compound 0.1 µM
[33] = second compound 10 µM, first compound 0.316 µM
[34] = second compound 10 µM, first compound 1 µM
[35] = second compound 10 µM, first compound 3.16 µM
[36] = second compound 10 µM, first compound 10 µM
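Further: spheroids exposed to compounds for seven days before readout.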
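Wherever viability, T/C is given: percent of DMSO vehicle control luminescence as 100% viability.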

O=c1[nH]cc(F)c(=O)[nH]1 + CNC(=O)c1ccc(Nc2nc(OC3CCCC3)c3c(-c4ccc5nc(C)oc5c4)c[nH]c3n2)c(OC)c1
IC50 (second compound 0.0316 µM): 1740 nM | IC50 (second compound 0.1 µM): 1020 nM | IC50 (second compound 0.316 µM): 931 nM | IC50 (second compound 1 µM): 320 nM | IC50 (second compound 3.16 µM): < 31.6 nM | IC50 (second compound 10 µM): < 31.6 nM | viability, T/C [1]: 94.6% | viability, T/C [2]: 88.3% | viability, T/C [3]: 108% | viability, T/C [4]: 62.9% | viability, T/C [5]: 41% | viability, T/C [6]: 31.2% | viability, T/C [7]: 104% | viability, T/C [8]: 93.8% | viability, T/C [9]: 73.8% | viability, T/C [10]: 50.1% | viability, T/C [11]: 38.4% | viability, T/C [12]: 36% | viability, T/C [13]: 71.4% | viability, T/C [14]: 91.7% | viability, T/C [15]: 66.5% | viability, T/C [16]: 47.5% | viability, T/C [17]: 37.1% | viability, T/C [18]: 24.5% | viability, T/C [19]: 80.6% | viability, T/C [20]: 56.2% | viability, T/C [21]: 60.5% | viability, T/C [22]: 32.5% | viability, T/C [23]: 22.4% | viability, T/C [24]: 18.7% | viability, T/C [25]: 46.7% | viability, T/C [26]: 46.9% | viability, T/C [27]: 41.2% | viability, T/C [28]: 26.4% | viability, T/C [29]: 18.1% | viability, T/C [30]: 13.8% | viability, T/C [31]: 44.8% | viability, T/C [32]: 39% | viability, T/C [33]: 33.1% | viability, T/C [34]: 23.5% | viability, T/C [35]: 18.9% | viability, T/C [36]: 14.6%

O=c1[nH]cc(F)c(=O)[nH]1 + CN1CCN(c2cc(C(=O)Nc3cc4cc(-c5cnn(C)c5)ccc4cn3)ccn2)CC1
IC50 (second compound 0.0316 µM): 2920 nM | IC50 (second compound 0.1 µM): 362 nM | IC50 (second compound 0.316 µM): < 31.6 nM | IC50 (second compound 1 µM): < 31.6 nM | IC50 (second compound 3.16 µM): < 31.6 nM | IC50 (second compound 10 µM): < 31.6 nM | viability, T/C [1]: 113% | viability, T/C [2]: 117% | viability, T/C [3]: 109% | viability, T/C [4]: 76.9% | viability, T/C [5]: 50.8% | viability, T/C [6]: 31.9% | viability, T/C [7]: 69.3% | viability, T/C [8]: 57.1% | viability, T/C [9]: 58.1% | viability, T/C [10]: 38.1% | viability, T/C [11]: 27.5% | viability, T/C [12]: 20.5% | viability, T/C [13]: 6.26% | viability, T/C [14]: 5.02% | viability, T/C [15]: 5.2% | viability, T/C [16]: 4.61% | viability, T/C [17]: 4.43% | viability, T/C [18]: 3.27% | viability, T/C [19]: 1.65% | viability, T/C [20]: 2.05% | viability, T/C [21]: 5.56% | viability, T/C [22]: 1.25% | viability, T/C [23]: 1.55% | viability, T/C [24]: 1.14% | viability, T/C [25]: 4.69% | viability, T/C [26]: 2.74% | viability, T/C [27]: 3.16% | viability, T/C [28]: 2.23% | viability, T/C [29]: 2.22% | viability, T/C [30]: 2.26% | viability, T/C [31]: 1.91% | viability, T/C [32]: 1.38% | viability, T/C [33]: 1.3% | viability, T/C [34]: 3.91% | viability, T/C [35]: 1.9% | viability, T/C [36]: 2.3%

CNC(=O)c1ccc(Nc2nc(OC3CCCC3)c3c(-c4ccc5nc(C)oc5c4)c[nH]c3n2)c(OC)c1
viability, T/C (compound 0.0316 µM): 96.1% [middle of 12 runs] | viability, T/C (compound 0.1 µM): 88.2% [middle of 12 runs] | viability, T/C (compound 0.316 µM): 85.1% [middle of 12 runs] | viability, T/C (compound 1 µM): 61.6% [middle of 11 runs] | viability, T/C (compound 3.16 µM): 45.4% [middle of 12 runs] | viability, T/C (compound 10 µM): 42.9% [middle of 12 runs]

CC(CO)NC(=O)c1cc(-c2ccc(Cl)cc2)nn(-c2cnn(C)c2)c1=O (centres undefined) + CN1CCN(c2cc(C(=O)Nc3cc4cc(-c5cnn(C)c5)ccc4cn3)ccn2)CC1
IC50 (second compound 0.0316 µM): > 10000 nM | IC50 (second compound 0.1 µM): > 10000 nM | IC50 (second compound 0.316 µM): < 31.6 nM | IC50 (second compound 1 µM): < 31.6 nM | IC50 (second compound 3.16 µM): < 31.6 nM | IC50 (second compound 10 µM): < 31.6 nM | viability, T/C [1]: 88.9% | viability, T/C [2]: 89.1% | viability, T/C [3]: 98.5% | viability, T/C [4]: 94% | viability, T/C [5]: 94.7% | viability, T/C [6]: 82.4% | viability, T/C [7]: 65.2% | viability, T/C [8]: 61.3% | viability, T/C [9]: 66.4% | viability, T/C [10]: 69% | viability, T/C [11]: 63.2% | viability, T/C [12]: 65.4% | viability, T/C [13]: 6.17% | viability, T/C [14]: 7.14% | viability, T/C [15]: 9.66% | viability, T/C [16]: 6.91% | viability, T/C [17]: 8.13% | viability, T/C [18]: 5.79% | viability, T/C [19]: 2.97% | viability, T/C [20]: 2.61% | viability, T/C [21]: 3.05% | viability, T/C [22]: 3.03% | viability, T/C [23]: 1.78% | viability, T/C [24]: 1.92% | viability, T/C [25]: 4.36% | viability, T/C [26]: 4.28% | viability, T/C [27]: 3.59% | viability, T/C [28]: 2.83% | viability, T/C [29]: 3.7% | viability, T/C [30]: 3.41% | viability, T/C [31]: 4.97% | viability, T/C [32]: 2.72% | viability, T/C [33]: 2.16% | viability, T/C [34]: 2.15% | viability, T/C [35]: 2.52% | viability, T/C [36]: 3%

COc1cccc2c1C(=O)c1c(O)c3c(c(O)c1C2=O)CC(O)(C(=O)CO)CC3OC1CC(N)C(O)C(C)O1 (centres undefined) + CN1CCN(c2cc(C(=O)Nc3cc4cc(-c5cnn(C)c5)ccc4cn3)ccn2)CC1
IC50 (second compound 0.0316 µM): 180 nM | IC50 (second compound 0.1 µM): 73.4 nM | IC50 (second compound 0.316 µM): < 31.6 nM | IC50 (second compound 1 µM): < 31.6 nM | IC50 (second compound 3.16 µM): < 31.6 nM | IC50 (second compound 10 µM): < 31.6 nM | viability, T/C [1]: 84.1% | viability, T/C [2]: 68% | viability, T/C [3]: 32.8% | viability, T/C [4]: 12.8% | viability, T/C [5]: 2.47% | viability, T/C [6]: 10.4% | viability, T/C [7]: 64.5% | viability, T/C [8]: 44.6% | viability, T/C [9]: 17.3% | viability, T/C [10]: 8.44% | viability, T/C [11]: 2.6% | viability, T/C [12]: 10.8% | viability, T/C [13]: 5.51% | viability, T/C [14]: 5.14% | viability, T/C [15]: 1.16% | viability, T/C [16]: 1.51% | viability, T/C [17]: 3.05% | viability, T/C [18]: 9.1% | viability, T/C [19]: 1.69% | viability, T/C [20]: 1.91% | viability, T/C [21]: 2.92% | viability, T/C [22]: 4.33% | viability, T/C [23]: 3.24% | viability, T/C [24]: 11% | viability, T/C [25]: 5.16% | viability, T/C [26]: 2.78% | viability, T/C [27]: 2.53% | viability, T/C [28]: 3.22% | viability, T/C [29]: 3.62% | viability, T/C [30]: 7.06% | viability, T/C [31]: 3.68% | viability, T/C [32]: 1.75% | viability, T/C [33]: 1.37% | viability, T/C [34]: 1.43% | viability, T/C [35]: 1.53% | viability, T/C [36]: 1.26%
